Measurements as given in ChEMBL document CHEMBL2331543, “Optimization of heterocyclic substituted benzenesulfonamides as novel carbonic anhydrase IX inhibitors and their structure activity relationship” (Eur J Med Chem, 2013).

Key:
[1] = species on record: Homo sapiens; test: Selectivity ratio of IC50 for recombinant human carbonic anhydrase 2 to IC50 for recombinant human carbonic anhydrase 9
[2] = target: Carbonic anhydrase 2 (Homo sapiens, UniProt P00918); test: Inhibition of recombinant human carbonic anhydrase 2 after 15 mins by stopped flow CO2 hydration assay
[3] = target: Carbonic anhydrase 1 (Homo sapiens, UniProt P00915); test: Inhibition of recombinant human carbonic anhydrase 1 after 15 mins by stopped flow CO2 hydration assay
[4] = target: Carbonic anhydrase 9 (Homo sapiens, UniProt Q16790); test: Inhibition of recombinant human carbonic anhydrase 9 after 15 mins by stopped flow CO2 hydration assay
[5] = species on record: Homo sapiens; test: Selectivity ratio of IC50 for recombinant human carbonic anhydrase 1 to IC50 for recombinant human carbonic anhydrase 9

Carbonic anhydrase 1, sequence (P00915 whole entry): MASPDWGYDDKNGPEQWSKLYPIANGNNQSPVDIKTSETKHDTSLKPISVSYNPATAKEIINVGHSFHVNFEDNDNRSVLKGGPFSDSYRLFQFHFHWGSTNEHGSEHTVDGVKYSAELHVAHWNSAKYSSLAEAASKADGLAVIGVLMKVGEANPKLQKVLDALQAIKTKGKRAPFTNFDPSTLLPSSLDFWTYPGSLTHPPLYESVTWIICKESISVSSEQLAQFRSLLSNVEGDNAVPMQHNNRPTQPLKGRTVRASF

Ratio IC50 [1] | IC50 [2] [nM] | IC50 [3] [nM] | IC50 [4] [nM] | Ratio IC50 [5] | SMILES
1140 | 547 | > 10000 | 0.48 | > 10000 | Cc1ccc(-c2nnc(Nc3ccc(S(N)(=O)=O)cc3)c3ccccc23)cc1S(N)(=O)=O
5.3 | 147 | > 10000 | 28.3 | > 100 | Nc1ccc(Nc2nnc(-c3cccc(S(N)(=O)=O)c3)c3ccccc23)cc1
24.5 | 455 | > 10000 | 18.5 | > 1000 | NS(=O)(=O)c1ccc(Nc2nnc(-c3cccc(S(N)(=O)=O)c3)c3ccccc23)cc1
 | > 10000 | > 10000 | > 690 |  | NS(=O)(=O)c1cccc(Nc2nnc(-c3ccc(Cl)cc3)c3ccccc23)c1
 | > 10000 | > 10000 | > 3900 |  | NS(=O)(=O)c1ccc(Nc2nnc(-c3ccc(Cl)cc3)c3ccccc23)cc1
 | > 10000 | > 10000 | 3930 |  | COc1cccc(-c2nnc(Nc3ccc(S(N)(=O)=O)cc3)c3ccccc23)c1
 | > 10000 | > 10000 | > 3900 |  | NS(=O)(=O)c1ccc(Nc2nnc(-c3ccc(C(F)(F)F)cc3)c3ccccc23)cc1
 | > 10000 | > 10000 | > 3900 |  | NS(=O)(=O)c1ccc(Nc2nnc(-c3ccccc3)c3ccccc23)cc1

Second part, the molecule before the results:

SMILES | Ratio IC50 [1] | IC50 [2] [nM] | IC50 [3] [nM] | IC50 [4] [nM] | Ratio IC50 [5]
Cc1cc(-c2nnc(Nc3ccc(S(N)(=O)=O)cc3)c3ccccc23)ccc1S(N)(=O)=O | 8.1 | 26.8 | 85.7 | 3.3 | 25.7
COc1ccc(-c2nnc(Nc3cccc(S(N)(=O)=O)c3)c3ccccc23)cc1 |  | > 10000 | > 10000 | > 690 | 
NS(=O)(=O)c1cccc(Nc2nnc(-c3ccc(C(F)(F)F)cc3)c3ccccc23)c1 |  | > 10000 | > 10000 | 690 | 
NS(=O)(=O)c1cccc(Nc2nnc(-c3ccccc3)c3ccccc23)c1 |  | > 10000 | > 10000 | > 690 | 
COc1cccc(-c2nnc(Nc3cccc(S(N)(=O)=O)c3)c3ccccc23)c1 |  | 61.8 | 220 | > 690 | 
CC(C)(C)c1ccc(Nc2nnc(-c3cccc(S(N)(=O)=O)c3)c3ccccc23)cc1 | > 100 | > 10000 | > 10000 | 29 | > 100
